Reference: the supplement of paper PMC10307832

Experiments:
Test in all cases: relative viability (nuclei count vs DMSO), 5 days (fraction); higher = more cells survive
Sulindac + OSI-027 = compound: CC1=C(CC(=O)O)c2cc(F)ccc2/C1=C\c1ccc([S+](C)[O-])cc1 [Sulindac] + COc1cccc2cc(-c3nc([C@H]4CC[C@H](C(=O)O)CC4)n4ncnc(N)c34)[nH]c12 [OSI-027] (partner 0.5 µM)
Summary of the method: (§1)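 Lung cancer cell lines, seeded in 1536-well plates, were treated the following day by pin tool with a single drug or with five library-drug doses (not always all listed) in √10 steps on top of a fixed anchor-drug dose. Cells were fixed and nuclei stained in one step after 5 days, and nuclei were counted. Relative viability is the nuclei count for treated wells divided by that for vehicle wells, reported as medians of duplicate plates.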

Sulindac + Vorinostat = compound: CC1=C(CC(=O)O)c2cc(F)ccc2/C1=C\c1ccc([S+](C)[O-])cc1 [Sulindac] + O=C(CCCCCCC(=O)Nc1ccccc1)NO [Vorinostat] (partner 1 µM)
Summary of the method: as §1

[1] = compound: O=c1[nH]cc(F)c(=O)[nH]1 [5-Fluorouracil] + Cc1nc(NC(=O)N2CCC[C@H]2C(N)=O)sc1-c1ccnc(C(C)(C)C(F)(F)F)c1 [Alpelisib] (partner 2 µM)
Summary of the method: as §1

Staurosporine + OSI-027 = compound: CN[C@@H]1C[C@H]2O[C@@](C)([C@@H]1OC)n1c3ccccc3c3c4c(c5c6ccccc6n2c5c31)C(=O)NC4 [Staurosporine] + COc1cccc2cc(-c3nc([C@H]4CC[C@H](C(=O)O)CC4)n4ncnc(N)c34)[nH]c12 [OSI-027] (partner 0.5 µM)
Summary of the method: as §1

Row | Cell Line | relative viability (Sulindac + OSI-027; first compound 0.08 µM) | relative viability (Sulindac + OSI-027; first compound 0.253 µM) | relative viability (Sulindac + OSI-027; first compound 2.53 µM) | relative viability (Sulindac + OSI-027; first compound 8 µM) | relative viability (Sulindac + Vorinostat; first compound 0.08 µM) | relative viability (Sulindac + Vorinostat; first compound 0.253 µM) | relative viability (Sulindac + Vorinostat; first compound 0.8 µM) | relative viability (Sulindac + Vorinostat; first compound 2.53 µM) | relative viability (Sulindac + Vorinostat; first compound 8 µM) | relative viability ([1]; first compound 0.02 µM) | relative viability ([1]; first compound 0.2 µM) | relative viability ([1]; first compound 0.6325 µM) | relative viability ([1]; first compound 2 µM) | relative viability (Staurosporine + OSI-027; first compound 0.005 µM) | relative viability (Staurosporine + OSI-027; first compound 0.01581 µM) | relative viability (Staurosporine + OSI-027; first compound 0.05 µM) | relative viability (Staurosporine + OSI-027; first compound 0.1581 µM) | relative viability (Staurosporine + OSI-027; first compound 0.5 µM) | relative viability (Sulindac + OSI-027; first compound 0.8 µM)
1 | NCI-H727 | 0.561 | 0.538 | 0.537 | 1 | 1.35 | 1.21 | 0.998 | 1.18 | 1.24 | 0.545 | 0.582 | 0.641 | 0.577 | 0.422 | 0.289 | 0.301 | 0.291 | 0.225 | 
2 | NCI-H1734 | 0.663 | 0.636 | 0.583 | 0.711 | 0.844 | 0.826 | 0.664 | 0.78 | 1.05 | 0.559 | 0.756 | 0.582 | 0.529 | 0.456 | 0.245 | 0.209 | 0.13 | 0.0703 | 
3 | EKVX | 0.674 | 0.713 | 0.598 | 0.684 | 0.636 | 0.635 |  | 0.652 | 0.771 | 0.7 |  | 0.153 | 0.147 | 0.557 | 0.399 | 0.284 | 0.209 | 0.15 | 0.641
4 | NCI-H596 | 0.798 | 0.761 | 0.77 | 0.772 | 0.589 | 0.606 |  | 0.578 | 0.612 | 0.357 | 0.449 | 0.497 | 0.381 | 0.798 | 0.285 | 0.439 | 0.179 | 0.135 | 0.76
5 | LCLC-97TM1 | 0.629 | 0.626 | 0.426 | 0.589 | 1.01 | 0.86 | 0.453 | 0.729 | 0.94 | 0.205 | 0.224 | 0.208 | 0.161 | 0.343 | 0.234 | 0.245 | 0.203 | 0.198 | 0.294
6 | COR-L23 | 1.09 | 0.777 | 0.743 | 0.94 | 0.453 | 0.471 | 0.399 | 0.499 | 0.561 | 0.862 | 0.661 | 0.491 | 0.209 | 0.462 | 0.381 | 0.199 | 0.104 | 0.0775 | 0.609
7 | NCI-H1355 | 0.403 | 0.454 | 0.38 | 0.393 | 0.586 | 0.721 | 0.488 | 0.619 | 0.723 | 0.716 | 0.551 | 0.372 | 0.286 | 0.332 | 0.15 | 0.192 | 0.157 | 0.143 | 
8 | EPLC-272H | 0.274 | 0.286 | 0.256 | 0.327 | 0.465 | 0.341 | 0.68 | 0.339 | 0.424 | 0.91 | 0.834 | 0.429 | 0.371 | 0.29 | 0.142 | 0.163 | 0.0783 | 0.0871 | 
9 | NCI-H1651 | 0.783 | 0.698 | 0.801 | 0.85 | 0.623 | 0.57 | 0.486 | 0.577 | 0.593 | 1.01 | 0.672 | 0.552 | 0.504 | 0.523 | 0.396 | 0.304 | 0.114 | 0.129 | 
10 | SW 1573 | 0.722 | 0.676 | 0.699 | 0.578 | 0.777 | 0.95 | 0.585 | 0.683 | 1.11 | 0.705 | 0.877 | 0.867 | 0.507 | 0.161 | 0.11 | 0.085 | 0.0637 | 0.0578 | 
11 | HCC-44 | 0.463 | 0.592 | 0.519 | 0.734 | 1.14 | 1.1 | 1.14 | 1.1 | 1.1 | 0.824 | 0.722 | 0.4 | 0.267 | 0.358 | 0.131 | 0.212 | 0.174 | 0.136 | 
12 | NCI-H460 | 1.5 | 0.811 | 0.688 | 0.77 | 1.35 | 0.614 | 0.623 | 0.994 | 0.795 | 0.389 | 0.345 | 0.136 | 0.0626 | 0.47 | 0.303 | 0.329 | 0.0118 | 0.006 | 0.566
13 | SK-LU-1 | 0.305 | 0.343 | 0.316 | 0.351 | 0.877 | 0.901 | 0.74 | 0.722 | 0.874 | 0.934 | 1.12 | 0.868 | 0.704 | 0.214 | 0.0957 |  | 0.113 | 0.0858 | 0.295
14 | LOU-NH91 | 0.681 | 0.714 | 0.705 | 0.73 | 0.965 | 0.97 | 0.716 | 0.952 | 1.1 | 0.679 | 0.706 | 0.57 | 0.466 | 0.767 | 0.571 | 0.487 | 0.344 | 0.213 | 0.808
15 | RERF-LC-KJ | 0.681 | 0.671 | 0.569 | 0.587 | 0.687 | 0.823 | 0.597 | 0.78 | 0.734 | 0.764 | 0.836 | 0.852 | 0.62 | 0.475 | 0.3 | 0.234 | 0.234 | 0.181 | 0.551
16 | NCI-H2126 | 0.578 | 0.698 | 0.741 | 0.771 | 0.902 | 0.79 | 0.721 | 0.715 | 0.839 | 0.668 | 0.337 | 0.274 | 0.272 | 0.712 | 0.406 | 0.486 | 0.338 | 0.333 | 0.674
17 | LU99A | 0.306 | 0.289 | 0.299 | 0.306 | 0.499 | 0.465 | 0.454 | 0.428 | 0.551 | 0.495 | 0.566 | 0.47 | 0.353 | 0.224 | 0.164 | 0.229 | 0.155 | 0.144 | 0.284
18 | BEN | 0.312 | 0.271 | 0.321 | 0.301 | 0.576 | 0.57 | 0.539 | 0.614 | 0.617 | 0.987 | 0.873 | 0.657 | 0.692 | 0.386 | 0.287 | 0.275 | 0.247 | 0.193 | 0.29
19 | NCI-H1666 | 0.857 | 0.882 | 0.826 | 0.915 | 0.981 | 1.06 | 0.867 | 0.891 | 1.1 | 0.823 | 0.442 | 0.35 | 0.306 | 0.658 | 0.542 | 0.548 | 0.425 | 0.262 | 0.753
20 | NCI-H1993 | 0.513 | 0.554 | 0.542 | 0.581 | 0.861 | 0.668 | 0.663 | 0.779 | 0.764 | 0.687 | 0.569 | 0.608 | 0.698 | 0.551 | 0.445 | 0.614 | 0.399 | 0.461 | 0.495
21 | NCI-H520 | 0.266 | 0.266 | 0.232 | 0.307 | 0.897 | 0.914 | 0.686 | 0.682 | 0.778 | 0.537 | 0.975 | 0.717 | 0.383 | 0.294 | 0.319 | 0.274 | 0.268 | 0.141 | 
22 | LCLC-103H | 0.558 | 0.499 | 0.496 | 0.555 | 0.872 | 0.773 | 0.729 | 0.72 | 0.799 | 0.984 | 0.983 | 0.699 | 0.403 | 0.531 | 0.219 | 0.168 | 0.194 | 0.153 | 0.388
23 | HCC-78 | 0.385 | 0.395 | 0.329 | 0.381 | 0.363 | 0.415 | 0.433 | 0.455 | 0.462 | 0.242 | 0.281 | 0.235 |  | 0.361 | 0.37 | 0.308 | 0.336 | 0.296 | 0.399
24 | NCI-H1975 | 0.93 | 0.762 | 0.759 | 0.835 | 0.804 | 0.737 | 0.634 | 0.738 | 0.77 | 0.57 | 0.723 | 0.465 | 0.293 | 0.573 | 0.144 | 0.187 |  | 0.0826 | 0.489
